# Measured values as given in EP2812315B1, “PYRROLIC DERIVATIVES, PROCESSES FOR PREPARING THE SAME AND THEIR USES AS A DRUG” (Universite Joseph Fourier, priority 2012, dated 2013).
# Key:
# Type in all cases: cell-based
# [1] = test system: Klebsiella pneumoniae ATCC 35657; assay: MIC determination, microdilution method (CLSI M07-A8); conditions: ATCC35657; Klebsiella pneumoniae ATCC 35657; 18 hours incubation; read-out: MIC
# Procedure: (§1) The microdilution method recommended by the Clinical and Laboratory Standard Institute [M07-A8, Vol.29, N°2] was used. The activity of pyrrolic compounds was tested against 29 bacterial strains belonging to 17 different species and 12 different genera (Staphylococcus, Streptococcus, Enterococcus, […], Bacillus, Haetttophilus, Escherichia, Klebsiella, Enterobacter, Serratia, Pseudomonas, and Acinetobacter). Bacterial inocula were prepared in Mueller Hinton broth (MH2, bioMérieux, Marcy L'Etoile, France), supplemented with 10% sheep blood for fastidious species (i.e., Streptococcus pneumoniae and Haemophilus influenzae). They were dispensed in 96 well microtiter plates (5 x 10^5 CFU/mL of final inoculum). Pyrrolic compounds were added to the wells as to obtain two-fold serial concentrations (0.25-64 mg/L). Plates were incubated at 37°C, in 5% CO2 enriched atmosphere for fastidious species only. MICs were read after 18 hours incubation of cultures, and corresponded to the minimum pyrrolic compound concentration that allowed complete visual growth inhibition of bacteria. Drug-free cultures served as growth controls. Cultures receiving gentamicine, ciprofloxacine or cefotaxime served as positive controls.
# [2] = test system: Staphylococcus aureus ATCC 9144; assay: as above; conditions: ATCC9144, 5 x 10^5 CFU/mL, 18 hours incubation
# Procedure: as §1
# [3] = test system: Staphylococcus aureus CIP 65.6; assay: as above; conditions: CIP65, 5 x 10^5 CFU/mL, 18 hours incubation
# Procedure: as §1
# [4] = test system: Staphylococcus aureus CIP 103428; assay: as above; conditions: CIP103428, 5 x 10^5 CFU/mL, 18 hours incubation
# Procedure: as §1
# [5] = test system: Staphylococcus epidermidis CIP 81.55; assay: as above; conditions: CIP81, 5 x 10^5 CFU/mL, 18 hours incubation
# Procedure: as §1
# [6] = test system: Enterobacter cloacae ATCC13047; assay: as above; conditions: Enterobacter cloacae ATCC13047; 18 hours incubation; read-out: MIC
# Procedure: as §1
# [7] = test system: Staphylococcus epidermidis CIP 103627; assay: as above; conditions: CIP103627, 5 x 10^5 CFU/mL, 18 hours incubation
# Procedure: as §1
# [8] = test system: Staphylococcus aureus ATCC 25923; assay: as above; conditions: ATCC25923; Staphylococcus aureus ATCC 25923; 5 x 10^5 CFU/mL; 18 hours incubation; read-out: MIC
# Procedure: as §1
# [9] = test system: Staphylococcus aureus ATCC 6538; assay: as above; conditions: ATCC6538, 5 x 10^5 CFU/mL, 18 hours incubation
# Procedure: as §1
# [10] = test system: Staphylococcus aureus ATCC 106414 (VISA); assay: as above; conditions: 5 x 10^5 CFU/mL, 18 hours incubation
# Procedure: as §1
# MRC5 = assay: In vitro cytotoxicity; conditions: MRC5 (human lung fibroblast), triplicate; for inhibition at 10 µM: 10^-5 M in DMSO, read-out: % of cellular growth inhibition; for inhibition at 1 µM: 10^-6 M in DMSO, read-out: % of cellular growth inhibition (converted)
# Procedure: (§2) In vitro cytotoxicity was assayed on three cell lines - KB (human mouth carcinoma), MCR5 (human lung fibroblast) and HCT116 (human colon tumor). Results are presented in table III as % of cellular growth inhibition in presence of 10^-5 M and 10^-6 M of the tested bis-pyrrolic derivatives in DMSO (triplicate).
# [11] = test system: KB (human mouth carcinoma); assay: In vitro cytotoxicity; conditions: triplicate; for inhibition at 10 µM: 10^-5 M in DMSO, read-out: % of cellular growth inhibition; for inhibition at 1 µM: 10^-6 M in DMSO, read-out: % of cellular growth inhibition (converted)
# Procedure: as §2
# [12] = test system: HCT116 (human colon tumor); assay: In vitro cytotoxicity; conditions: triplicate; for inhibition at 10 µM: HCT-116, 10^-5 M in DMSO, read-out: % of cellular growth inhibition; for inhibition at 1 µM: HCT-116, 10^-6 M in DMSO, read-out: % of cellular growth inhibition (converted)
# Procedure: as §2
# [13] = test system: Staphylococcus aureus (SA-1199B, NorA); assay: Other MIC determination, microdilution method (CLSI M07-A9) with modifications; conditions: 18 h
# Procedure: The microdilution method recommended by the Clinical and Laboratory Standard Institute [M07-A9, Vol.32, N°2] was used with the following modifications.
# Bacterial inocula were prepared in Mueller Hinton broth (MH2, BioMérieux, Marcy L'Etoile, France). They were dispensed in 96 well microtiter plates (10^6 CFU/ml of final inoculum, 192 µL per well).
# To avoid cross-contaminations in microtiter plates, one row was left blank between each strain tested. Microplates were incubated for 18h at 37 °C in ambient air. Then MICs were read visually and, in case of visual reading difficulties, confirmed using a spectrophotometer at a wavelength of 630 nm (BioTek® EL808 Absorbance Microplate Reader). MICs corresponded to the minimum pyrrolic compound concentrations that allowed complete visual growth inhibition of bacteria. Drug-free cultures served as growth controls.
# We used four Staphylococcus aureus strains. Two reference strains were provided by the French reference center for Staphylococcus spp. (Lyon, France), including one methicillin-susceptible (MSSA 476) and one methicillin-resistant (MRSA 252) S. aureus strains. The two remaining S. aureus strains were purchased from the CRBIP (Centre de Ressources Biologiques de l'Institut Pasteur): a vancomycin-intermediate strain (ATCC 106414) and a S. aureus strain (SA-1199B) resistant to fluoroquinolones due to overexpression of the NorA multidrug efflux pump. Coagulase-negative Staphylococcus strains included three reference strains purchased from CRBIP: a methicillin-susceptible S. epidermidis strain (ATCC 12228), a methicillin-resistant S. epidermidis strain (ATCC 49461), and a methicillin-susceptible S. sciuri strain (ATCC 29061). We also used 37 clinical strains belonging to the following coagulase-negative Staphylococcus species: S. arlettae (two strains), S. capitis (nine strains), S. epidermidis (one strain), S. haemolyticus (six strains), S. hominis (eight strains), S. lugdunensis (one strain), S. massiliensis (one strain), S. pettenkoferi (two strains), S. saprophyticus (two strains), S. simulans (one strain), and S. warneri (four strains) . Identification of the clinical strains was first obtained using VITEK® 2 System (Biomérieux) and confirmed by amplification and sequencing of the tuf gene (Reference: Bergeron, M., O. Dauwalder, M. Gouy, A.-M. Freydiere, M. Bes, H. Meugnier, Y. Benito, J. Etienne, G. Lina, F. Vandenesch, and S. Boisset. Species identification of staphylococci by amplification and sequencing of the tuf gene compared to the gap gene and by matrix-assisted laser desorption ionization time-of-flight mass spectrometry, Eur. J. Clin. Microbial. Infect. Dis. 2011, 30, 343-354).
# The activity of pyrrolic compounds 3c, 3e-3j and 3n was first tested against 12 Staphylococcus sp. strains, including 7 reference strains and five clinical strains. The MICs of these compounds against Staphylococcus aureus ATCC 106414 (VISA) and Staphylococcus epidermidis ATCC 12228 are in accordance with those described in Tables I and II.
SMILES,MIC [1],MIC [2],MIC [3],MIC [4],MIC [5],MIC [6],MIC [7],MIC [8],MIC [9],MIC [10],inhibition at 10 µM (MRC5),inhibition at 10 µM [11],inhibition at 10 µM [12],MIC [13],inhibition at 1 µM (MRC5),inhibition at 1 µM [11],inhibition at 1 µM [12]
CC(=O)c1c(C)[nH]c(C(c2cc3ccccc3o2)c2[nH]c(C)c(C(C)=O)c2C)c1C [3e],> 128 µg/mL,4 µg/mL,4 µg/mL,4 µg/mL,> 128 µg/mL,> 128 µg/mL,> 128 µg/mL,4 µg/mL,4 µg/mL,4 µg/mL,7 ± 1%,2 ± 3%,24 ± 6%,–,–,–,–
CC(=O)c1c(C)[nH]c(C(c2[nH]c(C)c(C(C)=O)c2C)c2csc3ccccc23)c1C [3i],> 128 µg/mL,1 µg/mL,0.5 µg/mL,0.5 µg/mL,> 128 µg/mL,> 128 µg/mL,> 128 µg/mL,1 µg/mL,0.5 µg/mL,0.5 µg/mL,84 ± 1%,95 ± 1%,50 ± 1%,1 µg/mL,0%,0%,10%
CC(=O)c1c(C)[nH]c(C(c2ccc(Cl)cc2)c2[nH]c(C)c(C(C)=O)c2C)c1C [3c],> 128 µg/mL,4 µg/mL,4 µg/mL,8 µg/mL,> 128 µg/mL,> 128 µg/mL,> 128 µg/mL,4 µg/mL,2 µg/mL,2 µg/mL,9 ± 1%,27 ± 7%,17 ± 11%,–,–,–,–
"COC(=O)c1cccc(C(c2[nH]c(C)c(C(C)=O)c2C)c2[nH]c(C)c(C(C)=O)c2C)c1 [3j, Methyl-3-[bis(4-acetyl-3,5-dimethyl-1H-pyrrol-2-yl)methyl]benzoate]",> 32 µg/mL,–,–,–,–,> 32 µg/mL,–,4 µg/mL,–,–,5 ± 1%,11 ± 3%,1 ± 3%,8 µg/mL,–,–,–
CC(=O)c1c(C)[nH]c(C(c2ccc(F)cc2)c2[nH]c(C)c(C(C)=O)c2C)c1C [3g],> 32 µg/mL,–,–,–,–,> 32 µg/mL,–,2 µg/mL,–,–,2 ± 1%,11 ± 3%,3 ± 6%,8 µg/mL,–,–,–
CC(=O)c1c(C)[nH]c(C(c2[nH]c(C)c(C(C)=O)c2C)c2csc3ccc(Br)cc23)c1C [3n],–,–,–,–,–,–,–,–,–,–,96 ± 1%,100 ± 1%,83 ± 1%,–,67%,81%,47%
CC(=O)c1c(C)[nH]c(C(c2[nH]c(C)c(C(C)=O)c2C)c2cccc3ccccc23)c1C [3h],> 128 µg/mL,8 µg/mL,1 µg/mL,1 µg/mL,> 128 µg/mL,> 128 µg/mL,> 128 µg/mL,1 µg/mL,1 µg/mL,1 µg/mL,25 ± 4%,54 ± 4%,53 ± 2%,2 µg/mL,0%,0%,5%
CC(=O)c1c(C)[nH]c(C(c2cc3ccccc3s2)c2[nH]c(C)c(C(C)=O)c2C)c1C [3f],> 128 µg/mL,2 µg/mL,2 µg/mL,2 µg/mL,> 128 µg/mL,> 128 µg/mL,> 128 µg/mL,2 µg/mL,2 µg/mL,2 µg/mL,0%,23 ± 3%,19 ± 4%,2 µg/mL,–,–,–
